For assay [1], the target named is T1, YTHDF1 (361-559) (Homo sapiens, UniProt Q9BYJ9).
T1 construct: GST (N, cleaved yes); made in house; host or cells: E. coli BL21 (DE3)
T1 sequence (Q9BYJ9 with tags, fused parts or gaps): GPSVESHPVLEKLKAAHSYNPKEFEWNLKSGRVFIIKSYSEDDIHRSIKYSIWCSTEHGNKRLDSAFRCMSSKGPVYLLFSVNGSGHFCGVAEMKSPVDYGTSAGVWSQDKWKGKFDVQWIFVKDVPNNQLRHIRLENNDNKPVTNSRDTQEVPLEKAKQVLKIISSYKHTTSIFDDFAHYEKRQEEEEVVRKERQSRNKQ
Put plainly: SPR binding assay. How it is done:
SPR binding assay was conducted at 25° C. on the Biacore T200 instrument (GE Healthcare). YTHDF1 (361-559) was covalently immobilized on a CM5 chip via standard amine-coupling procedure in the condition of 10 mM sodium acetate (pH 5.5).
A general note: SPR reads the build-up and loss of mass on a sensor chip optically.

For assay [2], the target named is T1, YTHDF1 (361-559). Put plainly: Microscale thermophoresis (MST) assay. Format: binding. How it is done: Microscale Thermophoresis (MST) assay was performed on MiscroScale Thermophoresis instrument (NanoTemper Technologies) at room temperature using the label-free method. […] And the YTHDF1 (361-559) was diluted to 4 μM with MST buffer. […] Before measuring, the mixture was centrifuged at 13000 rpm for 10 minutes at 4° C. At last, the samples were collected by Monolith NT™ Automated Label Free capillaries (NanoTemper Technologies) and the measurement was started. […] Affinity Analysis Software v2.3 (NanoTemper Technologies).
A general note: MST reads how a fluorescent partner responds to local heating, with and without ligand.

In another assay the target is T2, YTHDF1 mutant W384A (Homo sapiens, UniProt Q9BYJ9, W384A).
T2 construct: GST (N, cleaved yes); made in house; host or cells: E. coli BL21 (DE3)
T2 sequence (Q9BYJ9 with tags, fused parts or gaps W384A): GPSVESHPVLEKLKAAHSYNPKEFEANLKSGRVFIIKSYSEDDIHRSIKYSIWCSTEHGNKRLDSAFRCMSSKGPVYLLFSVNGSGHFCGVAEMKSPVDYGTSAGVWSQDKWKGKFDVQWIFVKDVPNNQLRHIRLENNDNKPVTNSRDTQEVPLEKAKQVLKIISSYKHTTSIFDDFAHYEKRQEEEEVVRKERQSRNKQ
Put plainly: FP assay with YTHDF1 mutant W384A. Format: binding. The protocol:
(§1) The protein YTHDF1 (361-559) (SEQ ID NO: 2) and its mutants (SEQ ID NOs: 4-13) were cloned into pGEx-6P-1 vector (obtained from YouBio Co, Ltd, Catalog NO: VT1258), and the His-YTHDF1 (361-559) (SEQ ID NO: 3) used in AlphaScreen Assay was cloned into modified pET28a vector (obtained from YouBio Co, Ltd, Catalog NO: VT1207). The vectors were transformed into E. coli BL21 (DE3) cells and cultured at 37° C. When OD value reached 0.6˜0.8, 1 mM Isopropyl-β-D-thiogalactopyranoside was added to overexpress the protein at 16° C. overnight. […] Then, the proteins were further purified via cation exchange (HiTrap SP, GE Healthcare) and finally through a Superdex 75 10/300 column (GE Healthcare). At last, the purified YTHDF1(361-559) and the mutants were kept in buffer which contains 20 mM Hepes (pH 7.4) and 200 mM NaCl. For His-YTHDF1 (361-559), the protein was purified via Ni-NTA chromatography (HisTrap FF, GE Healthcare), followed by cation exchange and Superdex 75 10/300 column in sequence. And the obtained protein was kept in the buffer with the same ingredients.
(§2) All of the YTHDF1 (361-559), the 5′-FAM labeled m^6A-containing mRNA (5′-FAM-[…] (m^6A) CUGUG-3′, SEQ ID NO: 14) and the candidate compounds were diluted with assay buffer (20 mM Hepes (pH 7.4), 50 mM NaCl, 0.01% (v/v) tween 20, 5% (v/v) glycerol). […] At last, the mixtures were measured by Envision Readers (PerkinElmer). […]

For the next assay, the target named is T3, YTHDF1 mutant N378A (Homo sapiens, UniProt Q9BYJ9, N378A).
T3 construct: GST (N, cleaved yes); made in house; host or cells: E. coli BL21 (DE3)
T3 sequence (Q9BYJ9 with tags, fused parts or gaps N378A): as the sequence (Q9BYJ9 with tags, fused parts or gaps W384A) above, with N20A, A26W counted along it
In words: FP assay with YTHDF1 mutant N378A. In kind it is binding. How it is done: as §1, §2

For another assay, the system named is B16-OVA tumor. In words: B16-OVA tumor growth, SAA with anti-PD-L1 antibody. Format: in vivo, mouse. The note with it: 5×10^5 B16-OVA; 10 μM SAA day 9 and 11; 100 ug anti-PD-L1 antibody day 9. How it is done:
For B6 mice tumor growth, 5×10^5 B16-OVA or 1×10^6 E.G7-OVA tumor cells were inoculated subcutaneously (s.c.) into the flank of mice. Tumor length (a) and width (b) was measured every two days and tumor volume was calculated by the formula ab^2/2. For the inhibitor treatment, 10 μM SAA or DMSO was injected intraperitoneally (i.p.) on day 9 and 11 after tumor inoculation. For other mice model (rag1^−/− and Ythdf1 conditional knockout), times and dose of inhibitor treatment was the same. For α-PD-L1 and SAA combination treatment, 5×10^5 B16-OVA tumor cells were inoculated subcutaneously into the flank of mice. 100 μg α-PD-L1 antibody (clone 10F.9G2) or rat immunoglobulin were administered at day 9 after tumor inoculation. 10 μM SAA or DMSO was administered in the same way on day 9 and 11 after tumor injection.
Wild-type mice were injected subcutaneously with 5×10^5 B16-OVA cells. 10 μM SAA was injected to each mouse on day 9 and day 11. Mice were also treated with 100 ug anti-PD-L1 antibody on day 9. Tumor growth was monitored over time.

Molecules are shown by their SMILES.

The record followed here is patent publication US20240033244A1, “COMPOSITIONS AND METHODS FOR INHIBITING YTHDF1” (SHANGHAI INSTITUTE OF MATERIA MEDICA, CHINESE ACADEMY OF …, priority 2020, published 2024).

Usually Kd stands for the free concentration of one partner at which half of the binding sites on the other are occupied at equilibrium, for simple one-to-one binding. A high value points to lower affinity.

Regarding `O=C(/C=C/c1ccc(O)c(O)c1/C=C/c1ccc(O)c(O)c1)O[C@H](Cc1ccc(O)c(O)c1)C(=O)O` [SAA, Salvianolic Acid A], the Kd is 2.52 µM on YTHDF1 (361-559) [1] and 4.7 µM at YTHDF1 (361-559) [2]. For the same compound, the “inhibitory activity against mutant binding to m6A versus wildtype” value at YTHDF1 mutant W384A and on YTHDF1 mutant N378A was “significantly weaker than that against wildtype YTHDF1” in each case. The B16-OVA tumor growth entry in the assay with B16-OVA tumor was “partially inhibit”.
